Tests used:
[1] = system: trabecular bone of mouse femur; experiment: Micro-CT analysis of trabecular bone of femur after free drinking of cFP; assay type: in vivo; details: cFP in drinking water (free drinking), FIG. 4
myoblasts = experiment: Differentiation of myoblasts and LADD staining (muscle fiber formation experiment); assay type: cell-based; details: mouse myoblasts, LADD staining, compared to vehicle, FIG. 1
From the text: Muscle growth is due to the formation of muscle fibers according to the binding between individual myoblasts. Therefore, the improvement of muscle growth can be estimated through the degree of muscle fiber formation in the environment that induced the binding of myoblasts. Accordingly, myoblasts were isolated from the muscle tissue of a subject and cultured, and whether muscle fibers were formed using the isolated myoblasts was observed.
The formation of muscle fibers can be evaluated by measuring the number of myoblasts that form muscle fibers and the thickness of the formed muscle fibers. To this end, a high-magnification optical microscope was used to identify the nucleus in the muscle fiber through muscle fiber staining. The thickness of the muscle fiber was also measured.
The muscle tissue was minced with a scalpel for 5 minutes. The minced muscle solution was incubated at 37° C. for 60 minutes and then centrifuged at 1500 rpm for 5 minutes. The obtained cells were suspended in Ham's F-10 medium containing 20% heat-inactivated horse serum and 50 units/ml of penicillin in the presence of basic FGF (2.5 ng/ml), and then plated on a cell culture dish for 1 hour without gelatin coating. After 1 hour, the suspended cells were transferred to a secondary cell culture dish without gelatin coating and cultured for 1 hour. […]

muscle mass of mice = experiment: Muscle collection and weighing after oral gavage of cFP; assay type: in vivo, mouse; details: male C57BL/6J mice, oral gavage every 24 hours, compared to the control group, FIG. 3
Procedure: According to an embodiment of the present invention, the increase in muscle weight and bone mass by oral administration of cyclo-L-phenylalanyl-L-proline (cFP) was measured. Muscle weight was measured by separating the muscles of the mouse according to anatomical muscle classification. In addition, trabecular bone analysis on the femur of the mouse was performed using high-resolution micro-CT (SMX-90CT system). Based on the growth plate of the femur, the lower part of the 1 mm was the starting point of the analysis, and the analysis was conducted from the starting point to 1.5 mm below the bone. Each indicator means as follows. bone volume/total bone volume (BV/TV, %), bone surface/trabecular bone volume (BS/BV, 1/mm), trabecular thickness (Tb. Th, mm), trabecular number (Tb.N, 1/mm), trabecular separation (Tb. Sp, mm).
Animal studies were conducted in accordance with the guidelines for animal research. All experimental procedures were approved by the Animal Care and Use Committee of Seoul National University Animal Hospital. Male C57BL/6J mice at 4 or 6 weeks of age were purchased from Orient Bio Inc. (Seongnam, Korea) and housed in a specific pathogen-free (SPF) animal facility with controlled temperature (22° C.), humidity (55%), and a 12-hour light-dark cycle. All animals were provided with a free feeding and drinking system. […]

## O=C1NC(Cc2ccccc2)C(=O)N2CCCC12 [cFP, cyclo-L-phenylalanyl-L-proline]
[1]
  BV/TV (bone volume/total bone volume): significantly high
  Tb. N (trabecular number): significantly high
  Tb. Th (trabecular thickness): significantly high
myoblasts
  fusion of myoblasts (muscle fiber formation; diameter of myotube and number of nuclei of myotube): promoted the fusion of myoblasts
Muscle mass of mice
  muscle mass of the mice: increased

— patent US20240424051A1, “COMPOSITION FOR TREATING […] OS[…] MECHANISM PROMOTING FORMATION OF MUSCLE FIBERS OR INHIBITING OSTEOCLASTOGENESIS, […]-L-PHENYLALANYL-L-PROLINE DIPEPTIDES” (CELLBION CO., LTD, priority 2021, published 2024)
